Test results taken from ChEMBL document CHEMBL6078698, “Discovery of 6-Fluoro-5-{4-[(5-fluoro-2-methyl-3-oxo-3,4-dihydroquinoxalin-6-yl)methyl]piperazin-1-yl}-N-methylpyridine-2-carboxamide (AZD9574): A CNS-Penetrant, PARP1-Selective Inhibitor” (J Med Chem, 2024).
Values after ≈ are worked out from the molar mass of the structure shown.

Tests used:
[1] = Inhibition of cell proliferation of human DLD-1 cells expressing BRCA2-/- incubated for 7 days by Sytox green dye based analysis; assay type: functional; settings: DLD-1, 168 h
[2] = Ratio of unbound drug concentration in brain to plasma of rat; assay type: ADME, cell-free; settings: for Kp uu: brain and plasma (unbound), read-out: K(p,uu,brain)
hERG (KCNH2) = hERG (KCNH2) (Homo sapiens, UniProt Q12809); assay: (§1) Inhibition of hERG transfected in CHO cells by electrophysiology; assay type: toxicity, cell-based; settings: human, CHO cells transfected with hERG
Chain of hERG (KCNH2) (Q12809 whole entry): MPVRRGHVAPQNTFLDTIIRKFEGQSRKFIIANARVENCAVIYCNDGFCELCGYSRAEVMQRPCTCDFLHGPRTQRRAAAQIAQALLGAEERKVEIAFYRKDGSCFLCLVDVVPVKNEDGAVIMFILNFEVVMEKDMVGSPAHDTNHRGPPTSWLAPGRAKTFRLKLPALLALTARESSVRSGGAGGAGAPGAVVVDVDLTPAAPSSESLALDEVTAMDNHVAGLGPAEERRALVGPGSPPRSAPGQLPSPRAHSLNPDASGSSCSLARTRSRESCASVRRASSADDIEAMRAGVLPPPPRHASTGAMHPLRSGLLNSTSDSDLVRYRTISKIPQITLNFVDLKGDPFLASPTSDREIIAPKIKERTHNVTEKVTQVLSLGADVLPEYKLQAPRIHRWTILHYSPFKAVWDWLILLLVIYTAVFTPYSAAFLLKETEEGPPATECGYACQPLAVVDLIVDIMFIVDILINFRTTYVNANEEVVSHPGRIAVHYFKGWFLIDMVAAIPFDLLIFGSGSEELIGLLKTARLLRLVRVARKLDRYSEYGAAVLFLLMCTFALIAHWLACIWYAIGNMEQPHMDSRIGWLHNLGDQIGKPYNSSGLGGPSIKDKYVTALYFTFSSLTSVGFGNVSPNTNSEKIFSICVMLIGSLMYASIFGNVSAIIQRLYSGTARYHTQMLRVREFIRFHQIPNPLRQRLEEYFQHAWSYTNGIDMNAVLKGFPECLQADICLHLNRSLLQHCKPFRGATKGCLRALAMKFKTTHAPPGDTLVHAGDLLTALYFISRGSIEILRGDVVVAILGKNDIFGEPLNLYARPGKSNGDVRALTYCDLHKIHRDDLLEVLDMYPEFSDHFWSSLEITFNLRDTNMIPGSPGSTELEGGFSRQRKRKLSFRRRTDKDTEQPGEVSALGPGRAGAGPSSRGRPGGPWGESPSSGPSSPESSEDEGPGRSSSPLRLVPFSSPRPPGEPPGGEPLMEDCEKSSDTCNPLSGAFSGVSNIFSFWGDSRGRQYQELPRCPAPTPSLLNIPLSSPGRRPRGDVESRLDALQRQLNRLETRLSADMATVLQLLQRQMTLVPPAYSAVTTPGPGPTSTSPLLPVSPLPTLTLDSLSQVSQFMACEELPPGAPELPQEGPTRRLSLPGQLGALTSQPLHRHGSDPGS

MDR1 (P-gp), BCRP = assay: Efflux ratio in MDCK-MDR1-BCRP cells; assay type: ADME, cell-based, Canis lupus familiaris; settings: dog
[3] = Intrinsic clearance in human liver microsomes; assay type: ADME, Microsome; settings: read-out: CLH
[4] = Solubility of compound at pH 7.4; assay type: physicochemical; settings: buffer
[5] = Lipophilicity, log D of compound at pH 7.4; assay type: physicochemical; settings: buffer
[6] = biological target: Poly [ADP-ribose] polymerase 1 (Homo sapiens, UniProt P09874); assay: Inhibition of N-terminal 6His-tagged full-length recombinant human PARP1 by fluorescence anisotropy assay
Chain of Poly [ADP-ribose] polymerase 1 (P09874 whole entry): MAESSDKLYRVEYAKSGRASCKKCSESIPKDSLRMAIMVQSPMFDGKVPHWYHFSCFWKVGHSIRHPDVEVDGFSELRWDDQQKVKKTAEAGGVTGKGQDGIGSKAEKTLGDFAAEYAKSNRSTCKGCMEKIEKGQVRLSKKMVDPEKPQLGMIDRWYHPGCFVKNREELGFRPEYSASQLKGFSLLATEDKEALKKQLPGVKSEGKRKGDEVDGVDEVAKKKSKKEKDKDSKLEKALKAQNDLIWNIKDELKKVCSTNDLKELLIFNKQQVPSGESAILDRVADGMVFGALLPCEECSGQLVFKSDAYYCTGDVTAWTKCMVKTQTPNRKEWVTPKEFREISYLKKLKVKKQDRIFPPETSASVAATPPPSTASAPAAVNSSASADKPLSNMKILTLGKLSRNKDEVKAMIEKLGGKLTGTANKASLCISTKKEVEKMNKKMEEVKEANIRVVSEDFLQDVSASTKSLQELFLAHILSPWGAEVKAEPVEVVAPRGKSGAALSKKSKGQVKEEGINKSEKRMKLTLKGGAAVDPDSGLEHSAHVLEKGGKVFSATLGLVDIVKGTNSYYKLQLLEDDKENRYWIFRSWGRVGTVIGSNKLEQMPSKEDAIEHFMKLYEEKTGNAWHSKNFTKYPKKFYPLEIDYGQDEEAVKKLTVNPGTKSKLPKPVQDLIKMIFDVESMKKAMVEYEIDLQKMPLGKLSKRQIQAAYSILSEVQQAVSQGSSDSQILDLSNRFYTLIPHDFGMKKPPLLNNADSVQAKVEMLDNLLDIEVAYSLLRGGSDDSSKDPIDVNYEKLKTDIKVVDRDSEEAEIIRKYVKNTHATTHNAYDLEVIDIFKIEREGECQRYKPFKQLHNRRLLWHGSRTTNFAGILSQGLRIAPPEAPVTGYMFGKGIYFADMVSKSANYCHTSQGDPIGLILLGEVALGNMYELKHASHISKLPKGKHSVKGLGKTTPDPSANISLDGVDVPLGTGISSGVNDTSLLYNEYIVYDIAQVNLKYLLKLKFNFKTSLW

[7] = biological target: Voltage-gated inwardly rectifying potassium channel KCNH2 (Homo sapiens, UniProt Q12809); assay: as §1; assay type: toxicity, cell-based
Chain of Voltage-gated inwardly rectifying potassium channel KCNH2 (Q12809 whole entry): as the sequence (Q12809 whole entry) above

[8] = biological target: Poly [ADP-ribose] polymerase 2 (Homo sapiens, UniProt Q9UGN5); assay: Inhibition of N-terminal 6His-tagged full-length recombinant human PARP2 by fluorescence anisotropy assay
Chain of Poly [ADP-ribose] polymerase 2 (Q9UGN5 whole entry): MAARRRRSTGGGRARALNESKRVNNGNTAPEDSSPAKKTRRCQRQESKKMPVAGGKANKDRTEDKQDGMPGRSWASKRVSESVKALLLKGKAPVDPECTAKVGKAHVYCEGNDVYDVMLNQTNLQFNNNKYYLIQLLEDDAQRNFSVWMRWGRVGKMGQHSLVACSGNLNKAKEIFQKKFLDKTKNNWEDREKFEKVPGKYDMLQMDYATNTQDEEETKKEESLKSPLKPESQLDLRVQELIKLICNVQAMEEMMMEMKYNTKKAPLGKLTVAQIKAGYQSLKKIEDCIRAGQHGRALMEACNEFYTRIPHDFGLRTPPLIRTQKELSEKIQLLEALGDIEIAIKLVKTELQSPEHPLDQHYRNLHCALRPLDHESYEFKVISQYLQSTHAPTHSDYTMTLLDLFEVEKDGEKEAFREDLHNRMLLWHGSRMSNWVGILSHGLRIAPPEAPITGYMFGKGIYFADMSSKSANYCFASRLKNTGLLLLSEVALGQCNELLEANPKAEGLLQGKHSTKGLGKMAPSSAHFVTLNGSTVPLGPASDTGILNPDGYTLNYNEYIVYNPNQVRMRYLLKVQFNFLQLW

| Structure (SMILES) | Kp uu [2] | efflux ratio (MDR1 (P-gp), BCRP) | microsomal CLint [3] | solubility [4] | logD [5] | IC50 [6] | IC50 [8] | K(p,uu,brain) ([2]; brain) | IC50 [1] | IC50 (hERG (KCNH2)) | IC50 [7] |
| --- | --- | --- | --- | --- | --- | --- | --- | --- | --- | --- | --- |
| CCc1cc2cnc(CN3CCN(c4ccc(C(=O)NC)nc4)CC3)cc2[nH]c1=O |  |  |  |  |  |  |  |  | 3 nM |  |  |
| CCc1nc2ccc(CN3CCN(c4ccc(C(=O)NC)nc4)CC3)cc2[nH]c1=O | 0.05 |  |  |  |  |  |  |  |  |  |  |
| CCc1cc2ccc(CN3CCN(c4ccc(C(=O)NC)nc4)CC3)cc2[nH]c1=O | 0.1 | 2.8 |  |  |  |  |  |  | 4 nM | 21000 nM |  |
| CCc1nc2ccc(CN3CCN(c4ccc(C(=O)NC)nc4Cl)CC3)cc2[nH]c1=O |  | 6.7 | 10 µL/min/mg | 8 µM (≈ 3.53 µg/mL) | 3 |  |  |  | 1 nM |  |  |
| CCc1nc2ccc(CN3CCN(c4ccc(C(=O)NC)nc4C)CC3)cc2[nH]c1=O |  | 2.2 | 10 µL/min/mg | 13 µM (≈ 5.47 µg/mL) | 2.9 |  |  |  | 2 nM |  |  |
| CCc1nc2ccc(CN3CCN(c4ccc(F)nc4C)CC3)cc2[nH]c1=O | 0.36 | 1.3 | 13 µL/min/mg | 30 µM (≈ 11.4 µg/mL) | 3.3 | 5 nM | 53000 nM |  | 10 nM |  | 11000 nM |
| CCc1nc2ccc(CN3CCN(c4ccc(C(=O)NC)nc4F)CC3)c(C)c2[nH]c1=O |  |  | < 3 µL/min/mg | < 2 µM | 3.1 |  | > 100000 nM |  | 12 nM |  |  |

Further lines, with some results ahead:

| Kp uu [2] | efflux ratio (MDR1 (P-gp), BCRP) | microsomal CLint [3] | solubility [4] | logD [5] | IC50 [6] | IC50 [8] | K(p,uu,brain) ([2]; brain) | Structure (SMILES) | IC50 [1] | IC50 (hERG (KCNH2)) | IC50 [7] |
| --- | --- | --- | --- | --- | --- | --- | --- | --- | --- | --- | --- |
| 0.1 | 2 | 8 µL/min/mg | 4 µM (≈ 1.7 µg/mL) | 2.7 |  |  |  | CCc1nc2ccc(CN3CCN(c4ccc(C(=O)NC)nc4F)CC3)cc2[nH]c1=O | 1 nM |  |  |
|  |  | 19 µL/min/mg | 3 µM (≈ 1.26 µg/mL) | 3.3 | 5 nM | 1500 nM |  | CCc1cc2ccc(CN3CCN(c4ccc(C(=O)NC)nc4C)CC3)cc2[nH]c1=O | 2 nM |  | 17000 nM |
|  |  | < 5 µL/min/mg | < 11 µM | 2.6 |  |  | 0.43 | CCc1nc2ccc(CN3CCN(c4ccc(C(=O)NC)nc4F)CC3)c(F)c2[nH]c1=O | 5 nM | > 40000 nM |  |
| 0.2 | 1 | 19 µL/min/mg | 9 µM (≈ 3.43 µg/mL) | 3.3 | 11 nM | > 67000 nM |  | CCc1nc2ccc(CN3CCN(c4cnc(F)cc4C)CC3)cc2[nH]c1=O | 13 nM |  | 23000 nM |
|  | 0.4 | 10 µL/min/mg | 20 µM (≈ 9.18 µg/mL) | 3.1 |  |  |  | CCc1nc2ccc(CN3CCN(c4ccc(C(=O)NC)nc4F)CC3)c(Cl)c2[nH]c1=O | 17 nM | > 40000 nM |  |
